Reference: ChEMBL document CHEMBL4190333, “Cyclic Biphalin Analogues Incorporating a Xylene Bridge: Synthesis, Characterization, and Biological Profile” (ACS Med Chem Lett, 2017)
pEC50, pKi: −log10 of the molar value. The source made the active and inactive calls. No cut-off for these calls is given here. Starred links: 1 amine or outer side, 2 acyl side, 3 side chain; linkers in the order of their positions; H or OH if unused. Positions of bridges follow the written chain, without caps; N, C: chain ends. Non-standard residues stand in square brackets, D forms with d. Residues, ends and D or L forms follow the SMILES beside them. Chains are numbered I, II in the order given. NHNH = N(N[*:2])[*:1]

Assays:
[1] = Half life in human plasma at 100 ug/ml by HPLC method; format: ADME, cell-free
Mus musculus [2] = test: Analgesic activity in formalin-induced nociception Harlan CD-1 mouse model assessed as reduction in time spent in licking or biting formalin injected hind paw during inflammatory phase at 0.1 nmol, sc pretreated for 15 mins followed by formalin induction measured after 15 to 40 mins; format: functional, organism-based
Rattus norvegicus [3] = species: Rattus norvegicus; test: (§1) Agonist activity at heteromeric G-protein in Wistar rat whole brain membranes after 30 mins by [35S]GTPgammaS binding assay; format: cell membranes; settings: Membrane
[4] = as §1; format: cell membranes, Membrane
Mu-type opioid receptor [5] = molecular target: Mu-type opioid receptor (Rattus norvegicus, UniProt P33535); test: Displacement of [3H]DAMGO from MOR in Wistar rat whole brain membranes after 45 mins by liquid scintillation counting method; format: cell membranes, Membrane
Chain of Mu-type opioid receptor (Rattus norvegicus, UniProt P33535) (P33535 whole entry): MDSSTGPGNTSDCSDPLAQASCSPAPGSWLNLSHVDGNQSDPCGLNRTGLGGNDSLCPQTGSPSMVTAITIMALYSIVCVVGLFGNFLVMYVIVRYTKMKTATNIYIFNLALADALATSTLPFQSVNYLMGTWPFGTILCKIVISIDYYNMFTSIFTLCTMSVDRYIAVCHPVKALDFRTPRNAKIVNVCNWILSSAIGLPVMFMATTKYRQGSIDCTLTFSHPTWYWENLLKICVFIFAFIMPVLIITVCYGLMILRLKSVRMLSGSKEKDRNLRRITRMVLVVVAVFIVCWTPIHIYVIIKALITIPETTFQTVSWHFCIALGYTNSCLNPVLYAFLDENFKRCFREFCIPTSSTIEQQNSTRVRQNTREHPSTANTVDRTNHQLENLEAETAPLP

Mus musculus [6] = test: Analgesic activity in formalin-induced nociception Harlan CD-1 mouse model assessed as reduction in time spent in licking or biting formalin injected hind paw during neurogenic phase at 0.1 nmol, sc pretreated for 15 mins followed by formalin induction measured up to 10 mins; format: functional, organism-based
[7] = molecular target: Delta-type opioid receptor (Rattus norvegicus, UniProt P33533); test: Displacement of [3H]lleDelt2 from DOR in Wistar rat whole brain membranes after 45 mins by liquid scintillation counting method; format: cell membranes, Membrane
Chain of Delta-type opioid receptor (P33533 whole entry): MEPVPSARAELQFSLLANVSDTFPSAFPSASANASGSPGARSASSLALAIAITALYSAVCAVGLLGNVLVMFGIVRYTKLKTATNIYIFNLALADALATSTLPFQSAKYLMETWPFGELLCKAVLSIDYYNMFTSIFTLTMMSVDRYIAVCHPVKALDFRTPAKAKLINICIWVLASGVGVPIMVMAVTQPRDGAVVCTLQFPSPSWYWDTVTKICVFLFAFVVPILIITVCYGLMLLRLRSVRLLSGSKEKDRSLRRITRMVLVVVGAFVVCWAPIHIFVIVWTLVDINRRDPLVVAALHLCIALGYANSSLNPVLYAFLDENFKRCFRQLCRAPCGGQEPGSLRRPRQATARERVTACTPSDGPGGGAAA

Mu-type opioid receptor [8] = molecular target: Mu-type opioid receptor (Homo sapiens, UniProt P35372); test: Binding affinity to MOR (unknown origin)
Chain of Mu-type opioid receptor (Homo sapiens, UniProt P35372) (P35372 whole entry): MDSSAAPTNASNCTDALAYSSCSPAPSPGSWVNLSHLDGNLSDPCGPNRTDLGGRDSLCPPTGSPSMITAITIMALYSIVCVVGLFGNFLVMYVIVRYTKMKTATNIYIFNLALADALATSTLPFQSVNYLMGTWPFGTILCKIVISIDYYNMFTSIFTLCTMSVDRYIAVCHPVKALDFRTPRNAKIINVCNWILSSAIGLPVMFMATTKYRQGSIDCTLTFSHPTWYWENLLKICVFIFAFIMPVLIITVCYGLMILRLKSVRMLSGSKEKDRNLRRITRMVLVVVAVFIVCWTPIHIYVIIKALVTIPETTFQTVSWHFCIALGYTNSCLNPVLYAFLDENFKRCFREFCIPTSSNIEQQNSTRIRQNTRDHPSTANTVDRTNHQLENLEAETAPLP

Mus musculus [9] = species: Mus musculus; test: Antinociceptive activity in Harlan CD-1 mouse model of thermal-induced nociception assessed as increase in latency to tail withdrawal at 0.01 nmol, i.t measured after 45 to 120 mins by tail flick test; format: functional, organism-based
Rattus norvegicus [10] = species: Rattus norvegicus; test: Selectivity ratio of Ki for displacement of [3H]lleDelt2 from DOR in Wistar rat whole brain membranes to displacement of [3H]DAMGO from MOR in Wistar rat whole brain membranes; format: cell membranes
Mus musculus [11] = test: Antinociceptive activity in Harlan CD-1 mouse model of thermal-induced nociception assessed as increase in latency to tail withdrawal at 0.01 nmol, icv measured after 45 to 90 mins by tail flick test; format: functional, organism-based
Mus musculus [12] = species: Mus musculus; test: Antinociceptive activity in Harlan CD-1 mouse model of thermal-induced nociception assessed as increase in latency to tail withdrawal at 0.01 nmol, i.t measured after 15 to 120 mins by tail flick test; format: functional, organism-based
Mus musculus [13] = test: Antinociceptive activity in Harlan CD-1 mouse model of thermal-induced nociception assessed as increase in latency to tail withdrawal at 0.01 nmol, icv measured after 15 to 120 mins by tail flick test; format: functional, organism-based

Structure (SMILES) | half-life at 100 ug/ml [1] [h] | Activity (Mus musculus [2]) | Emax (Rattus norvegicus [3]) [%] | pEC50 [4] | pKi (Mu-type opioid receptor [5]) | Activity (Mus musculus [6]) | pKi [7] | pEC50 (Mu-type opioid receptor [8]) | Activity (Mus musculus [9]) | Ratio Ki (Rattus norvegicus [10]) | Activity (Mus musculus [11]) | Activity (Mus musculus [12]) | Activity (Mus musculus [13])
C[C@@H](NC(=O)[C@@H](N)Cc1ccc(O)cc1)C(=O)NCC(=O)N[C@@H](Cc1ccccc1)C(=O)NNC(=O)[C@H](Cc1ccccc1)NC(=O)CNC(=O)[C@@H](C)NC(=O)[C@@H](N)Cc1ccc(O)cc1 [BIPHALIN] | 0.55 | Active | 177 | 7.12 | 9.10 | Active | 8.46 | 8.40 to 9.00 |  |  |  |  | 
N[C@@H](Cc1ccc(O)cc1)C(=O)N[C@@H]1CSCc2ccccc2CSC[C@@H](NC(=O)[C@@H](N)Cc2ccc(O)cc2)C(=O)NCC(=O)N[C@@H](Cc2ccccc2)C(=O)NNC(=O)[C@H](Cc2ccccc2)NC(=O)CNC1=O.O=C(O)C(F)(F)F.O=C(O)C(F)(F)F | 1.45 | Active | 137 | 6.61 | 8.88 | Active | 8.65 |  | Active | 1.8 | Active |  | 
N[C@@H](Cc1ccc(O)cc1)C(=O)N[C@@H]1CSCc2cccc(c2)CSC[C@@H](NC(=O)[C@@H](N)Cc2ccc(O)cc2)C(=O)NCC(=O)N[C@@H](Cc2ccccc2)C(=O)NNC(=O)[C@H](Cc2ccccc2)NC(=O)CNC1=O |  | Active | 160 | 6.67 | 8.76 | Active | 8.42 |  |  | 2.2 |  | Active | Active
N[C@@H](Cc1ccc(O)cc1)C(=O)N[C@@H]1CSCc2ccc(cc2)CSC[C@@H](NC(=O)[C@@H](N)Cc2ccc(O)cc2)C(=O)NCC(=O)N[C@@H](Cc2ccccc2)C(=O)NNC(=O)[C@H](Cc2ccccc2)NC(=O)CNC1=O |  | Active | 150 | 7.06 | 8.79 | Active | 8.60 |  |  | 1.5 |  | Active | Active
N[C@@H](Cc1ccc(O)cc1)C(=O)N[C@@H]1CSSC[C@@H](NC(=O)[C@@H](N)Cc2ccc(O)cc2)C(=O)NCC(=O)N[C@@H](Cc2ccccc2)C(=O)NNC(=O)[C@H](Cc2ccccc2)NC(=O)CNC1=O (I: H-Y[dC]GF / II: H-Y[dC]GF; disulfide I:2-II:2; linker I:C-II:C via NHNH) |  |  | 146 | 6.29 | 8.22 |  | 8.28 |  |  | 0.9 |  |  | 
